103 molecules from PubChem BioAssay AID1996 can be followed below.

In brackets after ≈: the same amount, converted by molar mass.

One may read the solubility (kinetic) as solubility judged after dilution from a stock solution rather than from solid.

For the data set the following is noted: buffer; pH 7.4; 200.0 µM.
`O=C(NCCc1ccc(Cl)cc1)c1ccc2nccnc2c1` registered a solubility (kinetic) of 4.8 µg/mL (≈ 15.4 µM).
The result for `COc1cccc(NC(=O)CSc2nnc(-c3cccnc3)o2)c1` reads over 51.4 µg/mL.
The result for `Cc1ccccc1NC(=O)CC1SC(=Nc2ccc(O)cc2)NC1=O` (stereo not drawn) reads 2 µg/mL (≈ 5.63 µM); that for `CN1C(=O)c2ccc(C(=O)Nc3ccc4c(c3)OCO4)cc2C1=O`, 0.7 µg/mL (≈ 2.16 µM).
The result for `Cc1ccc(N2C(=O)CSC2=S)cc1C` reads under 0.5 µg/mL.
For `CCN1CCN(c2ccc(NC(=O)COc3ccc(Cl)cc3C)cc2)CC1`, the solubility (kinetic) turned out to be 5.1 µg/mL (≈ 13.1 µM).
To `CC(CCc1ccccc1)NC(=O)COC(=O)c1cccs1` (stereo not drawn) belongs over 47.6 µg/mL.
To `CCc1ccc(OCC2NCCc3cc(OC)c(OC)cc32)cc1` (stereo not drawn) belongs over 49.1 µg/mL; to `O=C(CCc1ccccc1)Nc1nc2c(F)cc(F)cc2s1`, 4 µg/mL (≈ 12.6 µM); to `Cc1nc(N2CCN(c3ccc(Cl)cc3)CC2)[nH]c(=O)c1C`, 1.6 µg/mL (≈ 5.02 µM).
In turn, `Clc1ccccc1Sc1ccc(-c2ccccn2)s1` had a kinetic solubility of under 0.7 µg/mL.
To `CN(C)C(=O)Oc1noc2cc(Cl)ccc12` belongs 27.9 µg/mL (≈ 116 µM); to `Cc1cccc(C)c1-n1c(=O)n(Cc2ccccc2)c(=O)c2[nH]cnc21`, 20.4 µg/mL (≈ 58.9 µM); to `CN1CCN(CC(O)COc2ccc(C(=O)O)cc2)CC1` (stereo not drawn), 35.5 µg/mL (≈ 121 µM).
To `Cc1ccc(O)c(NC(=O)c2cc(-c3ccccc3Cl)on2)c1` belongs 0.4 µg/mL (≈ 1.22 µM).
To `Cc1ccccc1C(=O)Nc1ccc(N2CCN(C)CC2)nc1` belongs over 46.6 µg/mL; to `c1ccc(CNc2nc(-c3ccccc3)nc3ccccc23)cc1`, 1.2 µg/mL (≈ 3.85 µM).
As for `CSc1ccccc1NC(=O)CN1CCCCC1`, the solubility (kinetic) stood at 35.8 µg/mL (≈ 135 µM).
In the case of `Cc1ccccc1C(=O)NC1CCN(CC(=O)NC2CCCCC2)CC1`, the solubility (kinetic) was over 53.6 µg/mL.
In turn, `COc1ccc(NC(=O)C2=Cc3cccc(OC)c3OC2)cc1` displayed a kinetic solubility of 17.7 µg/mL (≈ 56.9 µM).
With `CCC1(C)Cc2c(sc3nc(SC)[nH]c(=S)c23)CO1` (stereo not drawn), the solubility (kinetic) is 8.9 µg/mL (≈ 28.5 µM).
To `Cc1cccc(C(=O)NC(=O)Nc2c(C)cc(C)nc2C)c1` belongs over 44.6 µg/mL.
The result for `CC(NC(=O)COC(=O)/C=C/c1cccc(F)c1)c1ccccc1` (stereo not drawn) reads 6.1 µg/mL (≈ 18.6 µM); that for `CCOCCOC(=O)c1[nH]c2c(c1C)C(=O)CC(c1ccccc1)C2` (stereo not drawn), 2.3 µg/mL (≈ 6.74 µM); that for `Cc1cc(NC(=O)CSc2nc3c(C)c(C)ccc3cc2C)no1`, under 0.2 µg/mL.
To `CC1CCN(C(=O)CSCC(=O)O)CC1` belongs over 34.7 µg/mL.
`COc1ccccc1CNC(=O)COC(=O)c1cc(C)oc1C` yielded a solubility (kinetic) of 4.3 µg/mL (≈ 13.6 µM).
In the case of `CC1CCCC(NC(=O)CNC(=O)c2cccs2)C1C` (stereo not drawn), the solubility (kinetic) was over 44.2 µg/mL.
The result for `Cc1ccc(S(=O)(=O)N2CCCCC2)cc1C(=O)OCC(=O)N1c2ccccc2NC(=O)C1(C)C` reads 3.2 µg/mL (≈ 6.41 µM); that for `COc1ccc(C(=O)OCC(=O)NC2CC2)cc1F`, 32.6 µg/mL (≈ 122 µM); that for `CC(C)(C)CC(=O)N1CCN(Cc2ccc3c(c2)OCO3)CC1`, over 47.8 µg/mL.
Molecule `O=C(COc1ccc2c(c1)OCO2)NCc1cccs1` gave a solubility (kinetic) of over 43.7 µg/mL.
On to `O=C(OCc1cc(=O)n2ccsc2n1)c1ccccc1NCCO`, for which the kinetic solubility is over 51.8 µg/mL.
In the case of `Cc1cc(NC(=O)CSc2nc3ccccc3n2CCC#N)no1`, the kinetic solubility is 7.7 µg/mL (≈ 22.6 µM).
On to `COc1cc(C(=S)N2CCCC2)cc(OC)c1OC`, for which the kinetic solubility was over 42.2 µg/mL.
As to `C/C(=N\OCC(=O)O)c1ccc(Cl)cc1`, the solubility (kinetic) is over 34.1 µg/mL.
For `COc1ccc(/C=C/C(=O)OCc2cccc([N+](=O)[O-])c2)cc1`, the kinetic solubility was under 0.7 µg/mL.
To `COc1ccc(CN2CCN(Cc3ccc(C)cc3)C(CCO)C2)cc1OC` (stereo not drawn) belongs 51.8 µg/mL (≈ 135 µM).
With `CC(c1ccccc1)N1CC(C(=O)Nc2ccc(F)cc2)CC1=O` (stereo not drawn), the kinetic solubility is over 49 µg/mL.
To `O=C(Nc1nccs1)C1CCN(S(=O)(=O)c2ccccc2)CC1` belongs 43.7 µg/mL (≈ 124 µM); to `COc1ccc(NC(=S)Nc2cc(C(F)(F)F)ccc2F)cc1`, 8.7 µg/mL (≈ 25.3 µM).
To `Nc1ccc(NC(=O)CCN2CCOCC2)cc1` belongs 34.8 µg/mL (≈ 140 µM); to `CCOc1ccccc1C(=O)NCC(=O)NCC1CCCCC1`, 5.6 µg/mL (≈ 17.6 µM); to `Cc1cccc(NC(=O)C2CCCN(c3cnccn3)C2)c1` (stereo not drawn), 27.2 µg/mL (≈ 91.8 µM).
The result for `CC(=O)c1ccc(S(=O)(=O)N2CCN(C(C)=O)CC2)cc1` reads over 46.6 µg/mL; that for `COc1ccc(/C=C/C(=O)Nc2cc(S(=O)(=O)N3CCOCC3)ccc2OC)cc1`, 8 µg/mL (≈ 18.5 µM); that for `N#Cc1ccc(C(=O)Nc2cc(S(=O)(=O)N3CCOCC3)ccc2N2CCCC2)cc1`, over 66.1 µg/mL.
In turn, `CCN(CC)c1nc(-c2ccccc2)nc2c1sc(=S)n2CC` came in with a kinetic solubility of under 0.2 µg/mL.
For the molecule `COc1ccc(CNC(=O)CC23CC4CC(CC(C4)C2)C3)cc1`, the solubility (kinetic) is 1.6 µg/mL (≈ 5.1 µM).
To `O=c1c2oc3nc4c(cc3c2ncn1CCCc1ccccc1)CCCC4` belongs 1.3 µg/mL (≈ 3.62 µM); to `Cc1ccc(C(=O)Cn2cncn2)cc1.Cl`, over 35.7 µg/mL; to `O=C(Nc1nc2ccccc2[nH]1)c1cc(F)cc(F)c1`, 0.7 µg/mL (≈ 2.56 µM).
The result for `COc1cc(NC(=O)c2ccccc2[N+](=O)[O-])ccc1NC(=O)c1cc2ccccc2o1` reads 0.7 µg/mL (≈ 1.62 µM).
The result for `Cc1cc(/C=C(\C#N)C(=O)O)c(C)n1CCC(C)C` reads over 39.1 µg/mL; that for `COc1ccc2[nH]c(C)c(C(=O)CN(C)CC3OCCO3)c2c1`, 45.9 µg/mL (≈ 144 µM).
Take `O=C(NCc1ccco1)c1ccc2c(c1)N(Cc1ccccc1)CCS2`: the kinetic solubility was 12.9 µg/mL (≈ 35.4 µM).
The result for `CCN(CC)CCCN=C(C)C1=C(O)c2ccccc2C1=O` reads over 45.1 µg/mL.
`O=C(Nc1cc2c3c(c1)CC(=O)N3CCC2)c1c(F)cccc1F` showed a solubility (kinetic) of 9.6 µg/mL (≈ 29.2 µM).
The result for `Nc1cc(=O)[nH]c(SCC(=O)Nc2ccc(N3CCOCC3)cc2)n1` reads over 54.2 µg/mL.
The result for `Nc1nnc(SCC(=O)OCC(=O)NC2CCCCC2)s1` reads over 49.6 µg/mL; that for `O=C(CC1SC(N2CCOCC2)=NC1=O)Nc1ccc(F)cc1` (stereo not drawn), over 50.6 µg/mL; that for `NC(=O)c1ccc(NC(=O)CN2C(=O)NC3(CCCCCCC3)C2=O)cc1`, over 55.9 µg/mL.
To `O=C(NCCc1ccccc1)c1cccc(Br)c1` belongs 10 µg/mL (≈ 32.9 µM); to `CCOc1nc2ccccc2cc1C=O`, 6.6 µg/mL (≈ 32.8 µM); to `COc1ccc(C(C)(C)C)cc1NC(=O)C1CCCO1` (stereo not drawn), 41.5 µg/mL (≈ 150 µM).
As for `CCN(CC)CCN(C(=O)c1ccc2ccccc2c1)c1nc2ccc(OC)cc2s1.Cl`, the kinetic solubility amounted to 14.2 µg/mL.
The result for `Cc1ccc(-n2c(SCC(N)=O)nnc2-c2cnccn2)cc1` reads over 49 µg/mL; that for `COc1ccc(C(=O)O)cc1S(=O)(=O)NC(C)C`, over 41 µg/mL; that for `CCC1CCCCN1C(=O)COC(=O)c1cc(=O)[nH]c2ccccc12` (stereo not drawn), over 51.4 µg/mL.
The result for `O=C(N/C(=C/c1ccccc1Cl)C(=O)N1CCOCC1)c1ccccc1` reads over 55.6 µg/mL; that for `CC(c1ccccc1)n1c(Br)nc2c1c(=O)[nH]c(=O)n2C` (stereo not drawn), 11.2 µg/mL (≈ 32.1 µM).
To `Cc1cc(C(F)(F)F)c2c(N)c(C(=O)NC3CC3)sc2n1` belongs over 47.3 µg/mL.
Consider `O=C(O)c1cccnc1SCc1cccc(Cl)c1`, for which the solubility (kinetic) came out at 41.5 µg/mL (≈ 148 µM).
To `Cn1c(COc2ccccc2O)[n+](C)c2ccccc21.[Br-]` belongs over 52.4 µg/mL; to `O=C(CN(c1ccccc1Cl)S(=O)(=O)c1ccccc1)NCc1ccccc1`, 18.7 µg/mL (≈ 45.1 µM).
To `CC(=O)NS(=O)(=O)c1ccc(NC(=O)c2cccc3ccccc23)cc1` belongs 53.9 µg/mL (≈ 146 µM).
`COC(=O)c1[nH]c2c(c1C)C(=O)CC(c1ccc(OC)c(OC)c1)C2` (stereo not drawn) returned a solubility (kinetic) of 2.1 µg/mL (≈ 6.12 µM).
The result for `O=c1cc(COc2ccc(Cl)c(Cl)c2)nc2sccn12` reads 1.1 µg/mL (≈ 3.36 µM); that for `CN1CCN(S(=O)(=O)Cc2ccc(Cl)cc2)CC1`, 33.8 µg/mL (≈ 117 µM).
The result for `COC(=O)c1sc2nc3c(cc2c1N)CCCC3` reads 2 µg/mL (≈ 7.62 µM); that for `O=C(NCc1ccccc1)C1CC(=O)N(C2CCCCC2)C1` (stereo not drawn), over 45.1 µg/mL; that for `CCS(=O)(=O)c1ncc(CO)n1CCc1ccccc1`, over 44.2 µg/mL.
The result for `Cn1c(O)c(C=NCCCCCCCCCCC(=O)O)c(=O)n(C)c1=O` reads over 55.1 µg/mL; that for `Cc1cc(C)c(C)c(S(=O)(=O)Nc2ccccc2N2CCOCC2)c1C`, 1.7 µg/mL (≈ 4.54 µM); that for `CCNC(=O)c1ccc(N(C)S(=O)(=O)c2cccs2)cc1`, over 48.7 µg/mL.
In the case of `CC(C)(C)C(O)(CC#CCN1CCCC1)c1ccccc1.Cl` (stereo not drawn), the solubility (kinetic) is over 48.3 µg/mL.
To `COc1cc2ccccc2cc1C(=O)NCc1ccncc1` belongs over 43.9 µg/mL; to `CC(C)c1ccc(NC(=O)N2CCOCC2)cc1`, over 37.2 µg/mL; to `COc1cccc(C(=O)Nc2ccc3c(c2)OCO3)c1OC`, 36.8 µg/mL (≈ 122 µM).
The result for `COCCn1c(SCC(=O)Nc2ccc3[nH]c(=O)[nH]c3c2)nc2ccccc21` reads 19.4 µg/mL (≈ 48.8 µM).
To `Cc1cc(=O)oc2cc(OCC(=O)OC(C)C(=O)Nc3ccc(S(N)(=O)=O)cc3)ccc12` (stereo not drawn) belongs over 69.1 µg/mL; to `N#Cc1ccc(C(=O)CN2CCN(c3ccccc3)CC2)cc1`, 34 µg/mL (≈ 111 µM).
With `O=C(CSc1ccc([N+](=O)[O-])cc1)OCC(=O)N1CCCC1=O`, the solubility (kinetic) was determined as 50.3 µg/mL (≈ 149 µM).
To `O=[N+]([O-])c1ccc2c(c1)C(c1ccccc1)=NCCN2` belongs 16.8 µg/mL (≈ 62.9 µM); to `CC(=O)c1sc(C(C)(C)C)cc1NC(=O)/C=C/C(=O)O`, 40 µg/mL (≈ 135 µM); to `Cc1ccc(C)c(OCCN2CCOCC2)c1`, 24.9 µg/mL (≈ 106 µM).
`CC(Oc1ccc(-c2nnco2)cc1)C(=O)N1CCOCC1` (stereo not drawn) had a kinetic solubility of over 45.5 µg/mL.
The result for `CC1CN(S(=O)(=O)c2ccccc2)CN1C(=O)N1CCOCC1` (stereo not drawn) reads over 50.9 µg/mL.
The result for `Cc1ccc(S(=O)(=O)N2CCCC2)s1` reads 32.3 µg/mL (≈ 140 µM); that for `Cc1ccc(S(=O)(=O)CCc2nc3ccccc3[nH]2)cc1`, over 45.1 µg/mL; that for `O=C(CC(c1ccccc1)c1ccccc1O)N1CCCCC1` (stereo not drawn), over 46.4 µg/mL.
With `O=C(O)CNC(=S)N(Cc1ccccc1Cl)C1CCCC1`, the kinetic solubility was over 49 µg/mL.
The result for `CC(C)OCCCNC(=O)C1CC(=O)N(CCc2ccccc2)C1` (stereo not drawn) reads 48.9 µg/mL (≈ 147 µM).
